# Measurements: patent US5792622A, “Assay for chemicals” (priority 1995, dated 1998)
# “Also recorded” adds a separate entry of the source. Read-outs that look alike come from different tables or passages of the source.
# How the values were obtained:
# [1] = cited from earlier work; for Microtox IC50: Table 8
# [2] = tested on: R. meliloti; assay: microbe, parasite or virus in culture; assay type: cell-based; conditions: for absorbance at which the reduction stopped: A550, FIGS. 3 and 5
# [3] = tested on: fish (trout fingerlings); conditions: Table 8, trout fingerlings; cited from earlier work
# [4] = tested on: R. meliloti; assay type: cell-based
# [5] = tested on: B. megaterium; assay type: cell-based
# [6] = tested on: Ps fluorescens; assay type: cell-based
# [7] = tested on: E. coli; assay type: cell-based
# [8] = tested on: S. typhimurium; assay type: cell-based
# [9] = tested on: A. crystallopoites; assay type: cell-based
# [10] = tested on: B. japonicum; assay type: cell-based
# [11] = tested on: R. leguminosarum; assay type: cell-based
# [12] = tested on: S. lactis; assay type: cell-based
# [13] = tested on: R. sphaeroides; assay type: cell-based
# [14] = Sinorhizobium meliloti, read-out: IC50 ppm
# [15] = Sinorhizobium meliloti, read-out: Rhizobium/Tetrazolium ppm
# [16] = Sinorhizobium meliloti, read-out: Rhizobium/Tetrazolium IC50
# [17] = ratio of the inhibitory concentrations
# [18] = read-out: toxic concentration in mM equivalent to ppm of Table 7
# [19] = rhizobium meliloti mtt reduction
# [20] = Sinorhizobium meliloti, Table 4, organic compounds, read-out: average (ppm), concentration giving 50% inhibition of dye reduction
# [21] = Sinorhizobium meliloti, Table 9, read-out: Rhizobium/Tetrazolium ppm
compound,measurement,setting,value
CC(C)=O [Acetone],Microtox ppm,[1]; microtox bioluminescence,"13305-29,109"
same,IC50,[2]; [14],71600 µg/mL
same,IC50,[2]; [15],1640 µg/mL
c1ccccc1 [Benzene],sensitivity of Rhizobium/Tetrazolium assay compared with Microtox assay,[2],at least an order of magnitude more sensitive than the Rhizobium/Tetrazolium assay
same,IC50,[2]; [16],712 µg/mL
same,IC50,[2]; [15],712 to 2100 µg/mL
[Cd] [Cadmium],Fish LD50 (50% death of the fish),[3],1.0-100 ppm
same,Microtox IC50,[1],416 ppm
same,ppm (50% inhibition of dye reduction),"[2]; Table 7, minerals",0.838 ppm
same,Rhizobium/Tetrazolium IC50,[2]; Table 8,0.210 ppm
same,sensitivity of Rhizobium/Tetrazolium assay compared with Microtox assay,[2]; [17],at least an order of magnitude more sensitive for 4 compounds
"[Ca+2].[Cl-].[Cl-] [Calcium, calcium chloride]",effect on the reaction,"[2]; 19 ppm, with 500 μl of 5 mM EDTA (0.758 mM EDTA)",does not affect the reaction
same,ppm (50% inhibition of dye reduction),"[2]; Table 7, minerals",5.230 ppm
same,level at which toxic,[2]; in the absence of a counteracting substance,6 ppm
same,IC50,[2]; [18],0.0471 mM
ClC(Cl)Cl [Chloroform],IC50 (amount per tube),[2],6.10 mg/tube
same,IC50 volume,[2],827 µL
same,IC50,[2]; [19],4132 ppm
same,"average (ppm), concentration giving 50% inhibition of dye reduction",[2]; [19],2032
[Co] [Cobalt],ppm (50% inhibition of dye reduction),"[2]; Table 7, minerals",11.200 ppm
"O=C1C(Cl)=CC(=Nc2ccc(O)cc2)C=C1Cl [DCIP, 2,6-dichlorophenol-indophenol]",rate of reduction of the dye,[4],reduced very slowly
"C[S+](C)[O-] [DMSO, dimethyl sulfoxide]",Microtox ppm,[1]; microtox bioluminescence,"3,506-102,995"
same,IC50,[2],203.3 μl/tube
"O=[N+]([O-])c1ccc(O)c([N+](=O)[O-])c1 [Dinitrophenol, dinitrophenol]",absorbance at which the reduction stopped,[2],0.2
same,IC50,[2]; [20],574 µg/mL
CCO [Ethanol],Microtox ppm,[1]; microtox bioluminescence,"23,090-55,388"
same,IC50,[2]; [14],75600 µg/mL
"O=[N+]([O-])c1ccc(-[n+]2nc(-c3ccccc3)nn2-c2ccc(I)cc2)cc1 [INT, 2-(4-iodophenyl)-3-(4-nitrophenyl)-5-phenyltetrazolium chloride]",absorbance of reduced dye,"[5]; Table 1, incubation 2:00 hrs",0.16
same,absorbance of reduced dye,"[6]; Table 1, incubation 1:57 hrs",0.17
same,absorbance of reduced dye,"[4]; Table 1, incubation 2:00 hrs",0.48
same,absorbance of reduced dye,"[7]; Table 1, incubation 1:40 hrs",0.12
same,absorbance of reduced dye,"[8]; Table 1, incubation 2:00 hrs",0.06
same,absorbance of reduced dye,"[9]; Table 1, incubation 2:00 hrs",0.14
same,absorbance of reduced dye,"[10]; Table 1, incubation 7:48 hrs",0.44
same,absorbance of reduced dye,"[11]; Table 1, incubation 7:48 hrs",0.02
same,absorbance of reduced dye,"[12]; Table 1, incubation 9:57 hrs",0.08
same,absorbance of reduced dye,"[13]; Table 1, incubation 11:25 hrs",0.95
[Pb] [Lead],inhibitory effect on the reduction of tetrazolium dye,[2],no inhibitory effect
"O=S(=O)([O-])[O-].[Mg+2] [Magnesium, Magnesium sulfate]",ppm (50% inhibition of dye reduction),"[2]; Table 7, minerals",59.900 ppm
same,IC50,[2]; [18],0.243 mM
[Mn+2] [Manganese],ppm (50% inhibition of dye reduction),[2]; [19],0.892
CO [Methanol],Microtox ppm,[1]; Table 9,"11,368-320400 ppm"
same,IC50,"[2]; Sinorhizobium meliloti, Table 6, solvents, read-out: IC50 ppm",76500 µg/mL
same,IC50,[2]; [21],68400 µg/mL
"COc1cc(-c2ccc(-n3nc(-c4ccccc4)n[n+]3-c3ccc([N+](=O)[O-])cc3)c(OC)c2)ccc1-n1nc(-c2ccccc2)n[n+]1-c1ccc([N+](=O)[O-])cc1 [NBT, 2,2'-di-nitrophenyl-5,5'-diphenyl-3,3'(-3,3'-dimethoxy-4,4'-diphenylene)ditetrazolium chloride]",absorbance of reduced dye,"[5]; Table 1, incubation 2:00 hrs",0.19
same,absorbance of reduced dye,"[6]; Table 1, incubation 1:57 hrs",0.04
same,absorbance of reduced dye,"[4]; Table 1, incubation 2:00 hrs",0.16
same,absorbance of reduced dye,"[7]; Table 1, incubation 1:40 hrs",0.1
same,absorbance of reduced dye,"[8]; Table 1, incubation 2:00 hrs",0.24
same,absorbance of reduced dye,"[9]; Table 1, incubation 2:00 hrs",0.27
same,absorbance of reduced dye,"[10]; Table 1, incubation 7:48 hrs",0.01
same,absorbance of reduced dye,"[11]; Table 1, incubation 7:48 hrs",0
same,absorbance of reduced dye,"[12]; Table 1, incubation 9:57 hrs",0.06
same,absorbance of reduced dye,"[13]; Table 1, incubation 11:25 hrs",0.16
"[Cl-].[Na+] [NaCl, sodium chloride]",IC50,"[2]; FIG. 12, 10% NaCl solution","60,689 ppm"
same,IC50 volume,"[2]; FIG. 12, 10% NaCl solution, 590 nm",606.89 µL
same,absorbance reached,"[2]; at 1000 μl of 10% NaCl solution, 590 nm",0.1
[Ni] [Nickel],Microtox ppm,[1]; microtox bioluminescence,34
same,Rhizobium/Tetrazolium ppm,[2]; [19],49.3
"Oc1c(Cl)c(Cl)c(Cl)c(Cl)c1Cl [Pentachlorophenol, pentachlorophenol]",Microtox IC50,[1],2.46-2.71 ppm
same,Microtox ppm,[1]; Table 9,2.46-2.71 ppm
same,inhibition compared with trichlorophenol,[2],an order of magnitude greater
same,absorbance at which the reduction stopped,[2],≤ 0.25
same,IC50,[2]; [20],0.206 µg/mL
same,IC50,"[2]; Sinorhizobium meliloti, Table 8, read-out: Rhizobium/Tetrazolium IC50",0.143 µg/mL
same,sensitivity of Rhizobium/Tetrazolium assay compared with Microtox assay,[2]; [17],at least an order of magnitude more sensitive for 4 compounds; also recorded: two orders of magnitude more sensitive
Oc1ccccc1 [Phenol],Fish LD50 (50% death of the fish),[3],50-100 ppm
same,Microtox ppm,[1]; microtox bioluminescence,623
same,sensitivity of Rhizobium/Tetrazolium assay compared with Microtox assay,[2],at least an order of magnitude more sensitive than the Rhizobium/Tetrazolium assay
same,IC50,[2]; [16],1220 µg/mL
same,IC50,"[2]; Sinorhizobium meliloti, read-out: average (ppm), concentration giving 50% inhibition of dye reduction",1320 µg/mL
"O=c1ccc2[n+]([O-])c3ccc(O)cc3oc-2c1 [Resazurin, resazurin]",usefulness of dye reduction by E. coli,[7]; protocol used with the tetrazolium dyes,did not yield useful results
[Se] [Selenium],IC50,"[2]; Sinorhizobium meliloti, Table 7, minerals, read-out: ppm (50% inhibition of dye reduction)",226 µg/mL
CCCCCCCCCCCCOS(=O)(=O)[O-].[Na+] [Sodium lauryl sulfate],IC50,[2]; [20],30.4 µg/mL
same,IC50,[2]; [21],31 µg/mL
same,sensitivity of Rhizobium/Tetrazolium assay compared with Microtox assay,[2]; [17],at least an order of magnitude more sensitive than the Rhizobium/Tetrazolium assay
"COc1cc(-c2ccc(-n3nc(-c4ccccc4)n[n+]3-c3ccccc3)c(OC)c2)ccc1-n1nc(-c2ccccc2)n[n+]1-c1ccccc1 [TB, 3,3'-[3,3'-dimethoxy(1,1'-biphenyl)-4,4'-diyl]-bis(2,5-diphenyl-2H-tetrazolium)dichloride]",absorbance of reduced dye,"[5]; Table 1, incubation 2:00 hrs",0.17
same,absorbance of reduced dye,"[6]; Table 1, incubation 1:57 hrs",0.05
same,absorbance of reduced dye,"[4]; Table 1, incubation 2:00 hrs",0.12
same,absorbance of reduced dye,"[7]; Table 1, incubation 1:40 hrs",0.04
same,absorbance of reduced dye,"[8]; Table 1, incubation 2:00 hrs",0.22
same,absorbance of reduced dye,"[9]; Table 1, incubation 2:00 hrs",0.22
same,absorbance of reduced dye,"[10]; Table 1, incubation 7:48 hrs",0.02
same,absorbance of reduced dye,"[11]; Table 1, incubation 7:48 hrs",0
same,absorbance of reduced dye,"[12]; Table 1, incubation 9:57 hrs",0.04
"c1ccc(-c2nn(-c3ccccc3)[n+](-c3ccccc3)n2)cc1 [TTC, 2,3,5-triphenyltetrazolium chloride]",absorbance of reduced dye,[5],0.1
same,absorbance of reduced dye,[6],0.01
same,absorbance of reduced dye,[4],0.09
same,absorbance of reduced dye,[7],0.14
same,absorbance of reduced dye,[8],0.04
same,absorbance of reduced dye,[9],0.09
same,absorbance of reduced dye,[10],0.07
same,absorbance of reduced dye,[11],0
same,absorbance of reduced dye,[12],0.05
same,absorbance of reduced dye,[13],0.12
Cc1ccccc1 [Toluene],Fish LD50 (50% death of the fish),[3],23 ppm
same,Microtox IC50,[1],"33,833 ppm"
same,Microtox ppm,[1]; Table 9,"18.0-33,833 ppm"
same,IC50,[2]; [16],590 µg/mL
same,IC50,[2]; [15],30 to 502 µg/mL
same,sensitivity of Rhizobium/Tetrazolium assay compared with Microtox assay,[2]; [17],at least an order of magnitude more sensitive than the Rhizobium/Tetrazolium assay
[Zn] [Zinc],Fish LD50 (50% death of the fish),[3],0.24-7.20 ppm
same,Microtox IC50,[1],476 ppm
same,ppm (50% inhibition of dye reduction),"[2]; Table 7, minerals",4.750 ppm
same,sensitivity of Rhizobium/Tetrazolium assay compared with Microtox assay,[2]; [17],at least an order of magnitude more sensitive for 4 compounds
[Fe] [iron],inhibitory effect on the reduction of tetrazolium dye,[2],no inhibitory effect
O=C1NS(=O)(=O)c2ccccc21 [saccharin],absorbance to which the reduction would eventually go,[2],0.0
same,IC50,[2]; Sinorhizobium meliloti,477 µg/mL
ClC(Cl)=C(Cl)Cl [tetrachloroethylene],IC50,[2]; [20],34.8 µg/mL
ClC=C(Cl)Cl [trichloroethylene],IC50,[2]; [20],59.5 µg/mL
Mercury,Microtox ppm,[1]; microtox bioluminescence,0.06
same,inhibition of tetrazolium reduction,[2],inhibited tetrazolium reduction completely
same,ppm (50% inhibition of dye reduction),[2]; [19],0.0179
